{
  "source": "patent USRE42890E1",
  "about": "“Furazanobenzimidazoles” (Basilea Pharmaceutica AG, priority 2003, dated 2011)",
  "key": {"Jily": {"tested_on": "Jily", "experiment": "MTS proliferation assay, Jily", "assay_type": "cell-based", "conditions": "72 h incubation, read-out: MTS proliferation assay IC 50 Jily", "how_it_was_run": "(§1)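 Cells seeded 24 h before treatment in RPMI-1640 with 5% or 10% FCS, then exposed 72 h at 37 °C, 7.5% CO2, to compound at final 10, 3, 1 and 0.3 μM. Viability by MTS, 3 h further incubation, absorbance 492 nm.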"}, "HeLa": {"tested_on": "HeLa", "experiment": "MTS proliferation assay, HeLa", "assay_type": "cell-based, human", "conditions": "72 h incubation, read-out: MTS proliferation assay IC 50 HeLa", "how_it_was_run": "(§2)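 Cells seeded 24 h before treatment in RPMI-1640 with 5% or 10% FCS. Compounds added at 10, 3, 1 and 0.3 μM final and incubated 72 h at 37 °C, 7.5% CO2. MTS reagent then added for 3 h, absorbance read at 492 nm.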"}, "MRC5": {"tested_on": "MRC5", "experiment": "MTS proliferation assay, MRC5", "assay_type": "cell-based", "conditions": "MRC5, 72 h incubation; read-out: MTS proliferation assay IC 50 MRC5", "how_it_was_run": "as §1"}, "Jurkat": {"tested_on": "Jurkat", "experiment": "MTS proliferation assay, Jurkat", "assay_type": "cell-based, human", "conditions": "72 h incubation, read-out: MTS proliferation assay IC 50 Jurkat", "how_it_was_run": "as §2"}, "HT1080": {"tested_on": "HT1080", "experiment": "MTS proliferation assay, HT1080", "assay_type": "cell-based, human", "conditions": "HT1080, 72 h incubation; read-out: MTS proliferation assay IC 50 HT1080", "how_it_was_run": "as §2"}, "[1]": {"tested_on": "adherent cells or suspension cells", "experiment": "Hoechst 33342 nuclear staining (fraction of apoptotic nuclei)", "assay_type": "cell-based", "design": "key: 0 relating to no activity; 1 relating to weak activity comprising less than 70% of the cells; score 2 relating to strong activity comprising more than 70% of the cells"}},
  "note": "pIC50: −log10 of the molar value.",
  "data": [
    {"molecule": "Nc1nonc1-c1nc2ccccc2n1CC(=NO)c1cccc(Cl)c1", "note": "(mixture of isomers) [Example 36]", "values": [
      {"measurement": "pIC50", "setting": "Jily", "value": "7.00 to 8.00"},
      {"measurement": "pIC50", "setting": "HeLa", "value": "7.00 to 8.00"},
      {"measurement": "pIC50", "setting": "MRC5", "value": "6.00 to 7.00"},
      {"measurement": "pIC50", "setting": "Jurkat", "value": "7.00 to 8.00"},
      {"measurement": "pIC50", "setting": "HT1080", "value": "6.00 to 7.00"},
      {"measurement": "Hoechst 33342 nuclear staining score", "setting": "[1]; H460, conc 0.01 μm", "value": 0},
      {"measurement": "Hoechst 33342 nuclear staining score", "setting": "[1]; H460, conc 0.1 μm", "value": 0},
      {"measurement": "Hoechst 33342 nuclear staining score", "setting": "[1]; H460, conc 1 μm", "value": 0},
      {"measurement": "Hoechst 33342 nuclear staining score", "setting": "[1]; HeLa, conc 0.01 μm", "value": 0},
      {"measurement": "Hoechst 33342 nuclear staining score", "setting": "[1]; HeLa, conc 0.1 μm", "value": 0},
      {"measurement": "Hoechst 33342 nuclear staining score", "setting": "[1]; HeLa, conc 1 μm", "value": 0},
      {"measurement": "Hoechst 33342 nuclear staining score", "setting": "[1]; Jily, conc 0.01 μm", "value": 0},
      {"measurement": "Hoechst 33342 nuclear staining score", "setting": "[1]; Jily, conc 0.1 μm", "value": 0},
      {"measurement": "Hoechst 33342 nuclear staining score", "setting": "[1]; Jily, conc 1 μm", "value": 0},
      {"measurement": "Hoechst 33342 nuclear staining score", "setting": "[1]; MRC5, conc 0.01 μm", "value": 0},
      {"measurement": "Hoechst 33342 nuclear staining score", "setting": "[1]; MRC5, conc 0.1 μm", "value": 0},
      {"measurement": "Hoechst 33342 nuclear staining score", "setting": "[1]; MRC5, conc 1 μm", "value": 0},
      {"measurement": "Hoechst 33342 nuclear staining score", "setting": "[1]; PBLs, conc 0.01 μm", "value": 0},
      {"measurement": "Hoechst 33342 nuclear staining score", "setting": "[1]; PBLs, conc 0.1 μm", "value": 0},
      {"measurement": "Hoechst 33342 nuclear staining score", "setting": "[1]; PBLs, conc 1 μm", "value": 0}
    ]},
    {"molecule": "CC(C)n1c(-c2nonc2N)nc2ccccc21", "note": "[A, reference compound]", "values": [
      {"measurement": "pIC50", "setting": "Jily", "value": "< 6.00"},
      {"measurement": "pIC50", "setting": "HeLa", "value": "< 6.00"},
      {"measurement": "pIC50", "setting": "MRC5", "value": "< 6.00"},
      {"measurement": "pIC50", "setting": "Jurkat", "value": "< 6.00"},
      {"measurement": "pIC50", "setting": "HT1080", "value": "< 6.00"},
      {"measurement": "Hoechst 33342 nuclear staining score", "setting": "[1]; H460, conc 3 μm", "value": 0},
      {"measurement": "Hoechst 33342 nuclear staining score", "setting": "[1]; H460, conc 10 μm", "value": 0},
      {"measurement": "Hoechst 33342 nuclear staining score", "setting": "[1]; H460, conc 30 μm", "value": 0},
      {"measurement": "Hoechst 33342 nuclear staining score", "setting": "[1]; HeLa, conc 3 μm", "value": 0},
      {"measurement": "Hoechst 33342 nuclear staining score", "setting": "[1]; HeLa, conc 10 μm", "value": 0},
      {"measurement": "Hoechst 33342 nuclear staining score", "setting": "[1]; HeLa, conc 30 μm", "value": 0},
      {"measurement": "Hoechst 33342 nuclear staining score", "setting": "[1]; Jily, conc 3 μm", "value": 0},
      {"measurement": "Hoechst 33342 nuclear staining score", "setting": "[1]; Jily, conc 10 μm", "value": 0},
      {"measurement": "Hoechst 33342 nuclear staining score", "setting": "[1]; Jily, conc 30 μm", "value": 0},
      {"measurement": "Hoechst 33342 nuclear staining score", "setting": "[1]; Jurkat, conc 3 μm", "value": 0},
      {"measurement": "Hoechst 33342 nuclear staining score", "setting": "[1]; Jurkat, conc 10 μm", "value": 0},
      {"measurement": "Hoechst 33342 nuclear staining score", "setting": "[1]; Jurkat, conc 30 μm", "value": 0},
      {"measurement": "Hoechst 33342 nuclear staining score", "setting": "[1]; MRC5, conc 3 μm", "value": 0},
      {"measurement": "Hoechst 33342 nuclear staining score", "setting": "[1]; MRC5, conc 10 μm", "value": 0},
      {"measurement": "Hoechst 33342 nuclear staining score", "setting": "[1]; MRC5, conc 30 μm", "value": 0},
      {"measurement": "Hoechst 33342 nuclear staining score", "setting": "[1]; PBLs, conc 3 μm", "value": 0},
      {"measurement": "Hoechst 33342 nuclear staining score", "setting": "[1]; PBLs, conc 10 μm", "value": 0},
      {"measurement": "Hoechst 33342 nuclear staining score", "setting": "[1]; PBLs, conc 30 μm", "value": 0}
    ]},
    {"molecule": "Nc1nonc1-c1nc2ccccc2n1CC1CC1", "note": "[B, reference compound]", "values": [
      {"measurement": "pIC50", "setting": "Jily", "value": "< 6.00"},
      {"measurement": "pIC50", "setting": "HeLa", "value": "< 6.00"},
      {"measurement": "pIC50", "setting": "MRC5", "value": "< 6.00"},
      {"measurement": "pIC50", "setting": "Jurkat", "value": "< 6.00"},
      {"measurement": "pIC50", "setting": "HT1080", "value": "< 6.00"},
      {"measurement": "Hoechst 33342 nuclear staining score", "setting": "[1]; H460, conc 3 μm", "value": 0},
      {"measurement": "Hoechst 33342 nuclear staining score", "setting": "[1]; H460, conc 10 μm", "value": 0},
      {"measurement": "Hoechst 33342 nuclear staining score", "setting": "[1]; H460, conc 30 μm", "value": 0},
      {"measurement": "Hoechst 33342 nuclear staining score", "setting": "[1]; HeLa, conc 3 μm", "value": 0},
      {"measurement": "Hoechst 33342 nuclear staining score", "setting": "[1]; HeLa, conc 10 μm", "value": 0},
      {"measurement": "Hoechst 33342 nuclear staining score", "setting": "[1]; HeLa, conc 30 μm", "value": 0},
      {"measurement": "Hoechst 33342 nuclear staining score", "setting": "[1]; Jily, conc 3 μm", "value": 0},
      {"measurement": "Hoechst 33342 nuclear staining score", "setting": "[1]; Jily, conc 10 μm", "value": 0},
      {"measurement": "Hoechst 33342 nuclear staining score", "setting": "[1]; Jily, conc 30 μm", "value": 0},
      {"measurement": "Hoechst 33342 nuclear staining score", "setting": "[1]; Jurkat, conc 3 μm", "value": 0},
      {"measurement": "Hoechst 33342 nuclear staining score", "setting": "[1]; Jurkat, conc 10 μm", "value": 0},
      {"measurement": "Hoechst 33342 nuclear staining score", "setting": "[1]; Jurkat, conc 30 μm", "value": 0},
      {"measurement": "Hoechst 33342 nuclear staining score", "setting": "[1]; MRC5, conc 3 μm", "value": 0},
      {"measurement": "Hoechst 33342 nuclear staining score", "setting": "[1]; MRC5, conc 10 μm", "value": 0},
      {"measurement": "Hoechst 33342 nuclear staining score", "setting": "[1]; MRC5, conc 30 μm", "value": 0},
      {"measurement": "Hoechst 33342 nuclear staining score", "setting": "[1]; PBLs, conc 3 μm", "value": 0},
      {"measurement": "Hoechst 33342 nuclear staining score", "setting": "[1]; PBLs, conc 10 μm", "value": 0},
      {"measurement": "Hoechst 33342 nuclear staining score", "setting": "[1]; PBLs, conc 30 μm", "value": 0}
    ]}
  ]
}
